The source of these data is paper PMC8157947, “Peptidic boronic acids are potent cell-permeable inhibitors of the malaria parasite egress serine protease SUB1” (Proceedings of the National Academy of Sciences of the …, 2021).

Experiment [1] has as its system elastase. In words: Elastase inhibition assay (MeOSuc-AAPV-AMC cleavage). The format is biochemical. To be noted: porcine elastase; estimated. The method, then:
Assays for assessing inhibition of elastase a c t i vit y (from porcine pancreas; Sigm a-Aldrich E7885) were based on c leavage of the fluorogenic peptide substrate MeOSuc-AAPV-AMC (Sigm a- Aldrich […]
324740). Elastase was dissolved in 1 m M HCl, 2 m M CaCl2 to produce a stock solutio n of 1 mg/ml […]
(38.6 µM). F or inhibition as says , 100 µl of 1 µg/m l (38.6 nM) elastase in 25 m M T ris -HCl pH 8.2, […]
15 m M CaC l2 was d ispense d into we lls of whit e 9 6- we ll m icrowe ll p lates (Nunc), and pre- incubated […]
for 5 m in wi th com pound 3j at concentr ations ranging from 0-20 µM before addition of substrate […]
(10 µM f inal). F luorescence increase was m onitored continuousl y with tim e as above. PMSF was used as a positive inh ib itor control as above. All m easurem ents were perform ed in duplicate.

Experiment [2] has as its system P. falciparum 3D7 schizonts. In words: Short-term egress/invasion assay, ring formation by flow cytometry. The class given is cell-based, Plasmodium falciparum. The method, then:
For this, P. falciparum cultures containing synchronous, highly mature schizonts were supplemented with compounds 3b, 3e, 3i, and 3j at a range of dilutions, then allowed to undergo egress and invasion for just 4 h in the continued presence of the compounds, before assessing formation of newly invaded “ring” stage parasites by flow cytometry.
Short-term egress, invasion, and washout assays were performed essentially as described previously ([27], [28], [42]). Briefly, highly synchronous mature Percoll-enriched schizonts with or without added fresh RBCs (∼5% parasitaemia final) were incubated with compounds under test or vehicle only (DMSO, 1% vol/vol). For washout assays, schizonts were treated with C2 or various concentrations of inhibitor 3j for 1 to 4 h, then washed extensively (at least four times) prior to addition to fresh RBCs where required. After incubation at 37 °C for just 1 to 4 h (or overnight for invasion assays) to allow schizont rupture, cells were pelleted. Clarified culture supernatants were assessed for extent of hemoglobin release (a measure of schizont rupture) by absorption spectroscopy at 415 nm as described previously ([28]) or analyzed by Western blot using antibodies against SERA5 ([7], [11]). To quantify generation of new rings, samples of the cultures were fixed with 4% paraformaldehyde/0.02% glutaraldehyde and stained with SYBR Green I (Life Technologies) and then analyzed by flow cytometry on a BD FACSVerse using BD FACSuite software. Data were analyzed using FlowJo software. All cultures were also routinely analyzed by microscopic examination of Giemsa-stained thin films to visually assess parasite morphology.

The test system of experiment [3] is P. falciparum schizonts expressing EXP2-mNeonGreen. In words: Time-lapse video microscopy of egress after compound washout. The format is cell-based, Plasmodium falciparum. To be noted: 10 μM, 30 min monitoring after washout.
Experiment [4] has as its system asexual blood-stage P. falciparum (clone 3D7). In words: SYBR Green I parasite growth assay. The class given is cell-based, Plasmodium falciparum. The method, then: The impact of the peptidic boronic acids on replication of asexual blood-stage P. falciparum (clone 3D7) was assessed using a SYBR Green I assay, essentially as described by Smilkstein et al. ([22]). Briefly, test compounds (dissolved in dimethyl sulfoxide [DMSO] at concentrations ranging from 4 mM to 5 μM) were added in triplicate to wells of flat bottomed, 96-well microtitre plates (1 μL per well). Wells were then supplemented with 100 μL per well of a P. falciparum parasite culture at 0.1% parasitaemia, 1% hematocrit. Each assay plate also included DMSO-only control wells (1% vol/vol), as well as additional control wells containing uninfected RBCs only. Plates were incubated in sealed, humidified gassed chambers at 37 °C for 96 h to allow the parasites to undergo two entire cycles of erythrocytic growth. Wells were then supplemented with 100 μL 1:5,000 dilution of stock SYBR Green I (Life Technologies, catalog no. S7563) diluted in 20 mM Tris HCl pH 7.5, 5 mM EDTA, 0.008% (weight/vol) saponin, 0.08% (vol/vol) Triton ×100. Plates were agitated to mix, incubated for a further 1 h in the dark at room temperature, then 150 μL samples from each well transferred to a fresh white microwell plate and fluorescence quantified using a SpectraMax M5e plate reader and SoftMax Pro-6.3 software (Ex 485 nm/Em 530 nm). IC50 values were determined from dose–response curves obtained after subtracting background fluorescence values (obtained from the RBC-only wells) from all experimental readings.

In experiment [5] the target is T1, recombinant PfSUB1 (rPfSUB1) (Plasmodium falciparum, UniProt Q8I0V0).
T1 construct: Chymotrypsin-treated rPfSUB1 (expressed and purified as described previously); made in house
T1 sequence (Q8I0V0 218-688): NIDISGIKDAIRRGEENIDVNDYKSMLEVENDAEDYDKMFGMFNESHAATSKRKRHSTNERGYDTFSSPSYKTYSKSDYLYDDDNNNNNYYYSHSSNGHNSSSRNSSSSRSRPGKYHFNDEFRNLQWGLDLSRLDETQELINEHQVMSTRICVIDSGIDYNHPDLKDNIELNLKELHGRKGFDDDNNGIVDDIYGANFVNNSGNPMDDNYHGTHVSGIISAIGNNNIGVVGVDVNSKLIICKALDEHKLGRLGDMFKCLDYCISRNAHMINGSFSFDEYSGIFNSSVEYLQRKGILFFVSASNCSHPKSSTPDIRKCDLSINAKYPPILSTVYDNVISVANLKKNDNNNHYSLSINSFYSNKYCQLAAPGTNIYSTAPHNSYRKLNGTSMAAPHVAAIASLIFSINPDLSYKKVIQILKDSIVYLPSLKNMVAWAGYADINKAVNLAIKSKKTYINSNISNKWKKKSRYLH
In words: rPfSUB1 fluorogenic peptide substrate cleavage inhibition assay. The format is biochemical. As to conditions: fluorogenic peptide substrate; mean ± SD of at least three measurements; read-out: IC50 (nM) (rPfSUB1). An excerpt: We previously described the development of a fluorescence-based in vitro assay suitable for the evaluation of substrate-based PfSUB1 inhibitors, using recombinant PfSUB1 (rPfSUB1) and fluorogenic peptide substrates based on cleavage sites within endogenous protein substrates of PfSUB1 ([13], [21]). […] This was perhaps unsurprising due to the high molecular mass and polar nature of these compounds, including the presence of a carboxylic acid moiety that was designed to mimic endogenous PfSUB1 protein substrates by interacting with the basic S’ surface of the PfSUB1 active-site cleft ([16]). Collectively, these features likely rendered the compounds poorly membrane penetrant.
Fluorescence of this peptide is quenched by rhodamine dimerization in the intact substrate but increases upon cleavage at the internal Q-D bond. Chymotrypsin-treated rPfSUB1 (expressed and purified as described previously ([16]) was stored at −80 °C as a 228 U/mL stock in 20 mM Tris–HCl pH 8.2, 150 mM NaCl, 10% glycerol, and diluted for use (1:500 or 1:600) in reaction buffer (20 mM Tris–HCl pH 8.2, 150 mM NaCl, 12 mM CaCl2, 25 mM CHAPS). Peptidic boronic acid inhibitors were dissolved in 100% DMSO at 10 or 20 mM, then further diluted in DMSO to generate stock solutions ranging from 500 to 0.01 μM and then used diluted 1:100 in the enzyme reactions. All reactions were performed in wells of white 96-well microwell plates (Nunc); 50 μL diluted rPfSUB1 was preincubated for 5 min with 1 μL each of the serially diluted boronic acid inhibitors, followed by addition of 50 μL substrate solution (0.1 μM final). Subsequent fluorescence increase was continuously monitored using a SpectraMax M5e plate reader and SoftMax Pro-6.3 software, with readings taken every 5 min for 60 min using excitation and emission values of 552 and 580 nm, respectively. […] All experiments were performed in duplicate.

Structures are written as SMILES. “And” between values parts separate entries of the source, which are not always exact repeats. Equal values may be shown once. Where only a bound is given, the exact number is not on record here.

Regarding `CC(=O)NC(C(=O)NC(C(=O)NCC(=O)NC(C)B(O)O)C(C)C)C1CCCC1` (centres unmarked) [3j], in experiment [1], the “elastase IC50 relative to that for PfSUB1” value was over 100 fold. The “schizont phenotype in Giemsa-stained thin films” value in experiment [2] (10 μM, 4 h incubation) is listed as “arrest of unruptured schizonts with no ring formation”. Also, the EC50 (commonly the midpoint of the concentration-response curve) stood at 2500 ± 300 nM in experiment [2] (Plasmodium falciparum, mature 3D7 schizonts with RBCs, 4 h, flow cytometry) and 0.26 ± 0.06 µM in experiment [4] (Plasmodium falciparum, 3D7, 96 h, two erythrocytic growth cycles, SYBR Green I). Also, the egress following washout entry in experiment [3] was “no egress occurred over the course of 30 min”. In addition, the “improved growth inhibitory potency” value in experiment [4] (relative to compound 3b) was about 10 fold. In experiment [4] (relative to short-term egress assays), the “higher potency in long-term growth assay” value is listed as about 10 fold. Besides, the IC50 – broadly, the concentration that inhibits the measured activity by half – in experiment [5] is ~5.7 nM and 5.7 nM.
